Measured values from patent publication US20070128217A1 (priority 2003, published 2007).

Legend:
[1] = system: rabbit serum obtained by immunizing a rabbit with the SARS-CoV strain Frankfurt 1; format: binding; set-up: Binding of a rabbit serum to linear peptides / Binding of a rabbit serum to looped peptides / Rabbit serum linear peptides / Rabbit serum looped peptides / Binding of a rabbit serum to linear peptides of protein N of SARS-CoV Urbani (Rabbit serum linear peptides) / Binding of a rabbit serum to looped/cyclic peptides of protein N of SARS-CoV Urbani (Rabbit serum looped peptides): unit not given here
[2] = system: control sera (pooled serum of ten healthy LUMC hospital workers; commercial negative donor pooled serum from the Dutch bloodbank); format: binding, human
[3] = system: antibodies in sera from SARS patients (sera 1a, 1b, 2, 6, 37, 62, London, SARS-yellow, SARS-green); format: binding, human

Sequence | Binding of a rabbit serum to linear peptides [1] | Binding of a rabbit serum to looped peptides [1] | Binding of Control Serum Blood-Bank to Looped peptides [2] | Binding of Control serum Blood-bank to linear peptides [2] | Binding of Control serum LUMC to linear peptides [2] | Binding of Control serum LUMC to looped peptides [2] | Binding of serum 1a to linear peptides of protein E of SARS-CoV Urbani [3] | Binding of serum 1a to looped/cyclic peptides of protein E of SARS-CoV Urbani [3] | Binding of serum 1b to linear peptides of protein E of SARS-CoV Urbani [3] | Binding of serum 1b to looped/cyclic peptides of protein E of SARS-CoV Urbani [3] | Binding of serum 2 to linear peptides of protein E of SARS-CoV Urbani [3] | Binding of serum 2 to looped/cyclic peptides of protein E of SARS-CoV Urbani [3] | Binding of serum 6 to linear peptides of protein E of SARS-CoV Urbani [3] | Binding of serum 6 to looped/cyclic peptides of protein E of SARS-CoV Urbani [3] | Binding of serum 37 to linear peptides of protein E of SARS-CoV Urbani [3] | Binding of serum 37 to looped/cyclic peptides of protein E of SARS-CoV Urbani [3] | Binding of serum 62 to linear peptides of protein E of SARS-CoV Urbani [3] | Binding of serum 62 to looped/cyclic peptides of protein E of SARS-CoV Urbani [3] | Binding of serum London to linear peptides of protein E of SARS-CoV Urbani [3] | Binding of serum London to looped/cyclic peptides of protein E of SARS-CoV Urbani [3] | other results
SFVSEETGTLIVNSV | 0.5 | 0.1 | 0.7 | 0.9 | 0.6 | 0.7 | 0.9 | 0.5 | 0.7 | 0.4 | 0.6 | 0.5 | 0.6 | 0.4 | 0.8 | 0.6 | 0.8 | 0.7 | 0.5 | 0.5 | Binding of serum SARS-green to linear peptides of protein E of SARS-CoV Urbani [3]: 0.5; Binding of serum SARS-green to looped/cyclic peptides of protein E of SARS-CoV Urbani [3]: 0.4; Binding of serum SARS-yellow to linear peptides of protein E of SARS-CoV Urbani [3]: 0.1; Binding of serum SARS-yellow to looped/cyclic peptides of protein E of SARS-CoV Urbani [3]: 0.7
LFLAFVVFLLVTLAI | 0.5 | 0.3 | 0.6 | 0.7 | 0.5 | 0.7 | 0.9 | 0.5 | 0.5 | 0.5 | 0.9 | 0.6 | 0.7 | 0.5 | 0.7 | 0.6 | 0.7 | 0.7 | 0.8 | 0.5 | Binding of serum SARS-green to linear peptides of protein E of SARS-CoV Urbani [3]: 0.5; Binding of serum SARS-green to looped/cyclic peptides of protein E of SARS-CoV Urbani [3]: 0.7; Binding of serum SARS-yellow to linear peptides of protein E of SARS-CoV Urbani [3]: 0.2; Binding of serum SARS-yellow to looped/cyclic peptides of protein E of SARS-CoV Urbani [3]: 0.9
EETGTLIVNSVLLFL | 0.5 | 0.0 | 0.6 | 0.7 | 0.6 | 0.4 | 0.8 | 0.4 | 0.7 | 0.3 | 0.4 | 0.3 | 0.6 | 0.4 | 0.8 | 0.4 | 0.7 | 0.7 | 0.5 | 0.4 | Binding of serum SARS-green to linear peptides of protein E of SARS-CoV Urbani [3]: 0.5; Binding of serum SARS-green to looped/cyclic peptides of protein E of SARS-CoV Urbani [3]: 0.3; Binding of serum SARS-yellow to linear peptides of protein E of SARS-CoV Urbani [3]: 0.2; Binding of serum SARS-yellow to looped/cyclic peptides of protein E of SARS-CoV Urbani [3]: 0.5
SEETGTLIVNSVLLF | 0.7 | 0.0 | 0.6 | 0.5 | 0.6 | 0.5 | 0.9 | 0.4 | 0.7 | 0.3 | 0.3 | 0.3 | 0.7 | 0.5 | 0.7 | 0.4 | 0.7 | 0.7 | 0.5 | 0.5 | Binding of serum SARS-green to linear peptides of protein E of SARS-CoV Urbani [3]: 0.4; Binding of serum SARS-green to looped/cyclic peptides of protein E of SARS-CoV Urbani [3]: 0.4; Binding of serum SARS-yellow to linear peptides of protein E of SARS-CoV Urbani [3]: 0.1; Binding of serum SARS-yellow to looped/cyclic peptides of protein E of SARS-CoV Urbani [3]: 0.5
VLLFLAFVVFLLVTL | 0.5 | 0.5 | 0.5 | 0.8 | 0.5 | 0.7 | 0.8 | 0.6 | 0.9 | 0.5 | 0.8 | 0.5 | 0.9 | 0.4 | 0.8 | 0.6 | 0.8 | 0.8 | 0.6 | 0.4 | Binding of serum SARS-green to linear peptides of protein E of SARS-CoV Urbani [3]: 0.5; Binding of serum SARS-green to looped/cyclic peptides of protein E of SARS-CoV Urbani [3]: 0.3; Binding of serum SARS-yellow to linear peptides of protein E of SARS-CoV Urbani [3]: 0.3; Binding of serum SARS-yellow to looped/cyclic peptides of protein E of SARS-CoV Urbani [3]: 0.6
